From patent US12233161B1, “Lipids and lipid nanoparticle formulations” (LONGUIDE BIOPHARMA CORPORATION, priority 2024, dated 2025)
Values belong to the compound of their own block, whether it stands above or below them.

Experiments:
[1] = Potential characterization of nucleic acid lipid nanoparticle preparations; assay type: physicochemical
Method in brief: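 Zeta potential was read on a Malvern ZEN3700 after diluting 20 μL lipid nanoparticle solution (about 0.04 mg/mL mRNA) into 780 μL ultrapure water. Alternatively, a 27.5 μL sample in 200 μL water was first sized by dynamic light scattering, then diluted with 600 μL more water for potential measurement.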

[2] = Particle size and PDI of nucleic acid lipid nanoparticle preparations by dynamic light scattering; assay type: physicochemical
Method in brief: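 Size read by DLS after diluting the LNP preparation (approx. 0.04 mg/mL mRNA) in ultrapure water with gentle pipette mixing. The same sample, recovered and diluted further with water, was then used for zeta potential measurement.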

mice = experiment: In vivo delivery of FLuc-mRNA lipid nanoparticles in mice, in vivo imaging (IVIS)
Method in brief: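 Mice (n=3) received about 75 μL FLuc-mRNA LNP per mouse intramuscularly (rectus femoris), intravenously (tail vein), intraperitoneally or subcutaneously (back). After injection, D-luciferin (200 μL, 15 mg/mL) was given i.p. 10-15 min before IVIS imaging.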

[3] = DMG-PEG2000:DSPC:Chol:compound 1.40:11.15:38.95:48.50, N/P 30
[4] = DSPE-PEG5000:DSPC:Chol:compound 1.40:11.15:38.95:48.50, N/P 30
[5] = IM, DSPE-PEG5000:DSPC:Chol:compound 1.40:11.15:38.95:48.50, N/P 30, Fluc-mRNA
[6] = IV, organ not given, DSPE-PEG5000:DSPC:Chol:compound 1.40:11.15:38.95:48.50, N/P 30, Fluc-mRNA
[7] = DMG-PEG2000:DPPC:Chol:compound 1.40:11.15:38.95:48.50, N/P 30
[8] = IM, DMG-PEG2000:DPPC:Chol:compound 1.40:11.15:38.95:48.50, N/P 30, Fluc-mRNA
[9] = IV, body, DMG-PEG2000:DPPC:Chol:compound 1.40:11.15:38.95:48.50, N/P 30, Fluc-mRNA
[10] = IV, liver, DMG-PEG2000:DPPC:Chol:compound 1.40:11.15:38.95:48.50, N/P 30
[11] = IV, liver, DMG-PEG2000:DPPC:Chol:compound 1.40:11.15:38.95:48.50, N/P 30, Fluc-mRNA
[12] = IV, lung, DMG-PEG2000:DPPC:Chol:compound 1.40:11.15:38.95:48.50, N/P 30
[13] = IV, lung, DMG-PEG2000:DPPC:Chol:compound 1.40:11.15:38.95:48.50, N/P 30, Fluc-mRNA
[14] = IV, spleen, DMG-PEG2000:DPPC:Chol:compound 1.40:11.15:38.95:48.50, N/P 30
[15] = IV, spleen, DMG-PEG2000:DPPC:Chol:compound 1.40:11.15:38.95:48.50, N/P 30, Fluc-mRNA
[16] = mPEG-DMPE:DOPE:Chol:compound 1.40:11.15:38.95:48.50, N/P 24
[17] = DSPE-PEG5000:DPPC:Chol:compound 1.00:11.15:39.35:48.50, N/P 15
[18] = mRNA LNP, 1.00:10.00:33.00:56.00, N/P 42
[19] = mRNA LNP, 1.40:11.15:38.95:48.50, N/P 30
[20] = mRNA LNP, 1.00:10.00:33.00:56.00, N/P 42, IV, liver
[21] = mRNA LNP, 1.00:10.00:33.00:56.00, N/P 42, IV, lung
[22] = mRNA LNP, 1.00:10.00:33.00:56.00, N/P 42, IV, spleen
[23] = mRNA LNP, 1.40:11.15:38.95:48.50, N/P 30, IV, liver
[24] = mRNA LNP, 1.40:11.15:38.95:48.50, N/P 30, IV, lung
[25] = mRNA LNP, 1.40:11.15:38.95:48.50, N/P 30, IV, spleen

- Zeta potential (mV) [1, 3]: 4.11 mV
- PDI [2, 3]: 0.12
- Particle size (nm) [2, 3]: 125.77 nm
SMILES: CCCCCCOC(C)OCCCCCCOC(=O)C(O)CN(CCCN(CC(O)C(=O)OCCCCCCOC(C)OCCCCCC)CC(O)C(=O)OCCCCCCOC(C)OCCCCCC)CCCN(CC(O)C(=O)OCCCCCCOC(C)OCCCCCC)CC(O)C(=O)OCCCCCCOC(C)OCCCCCC (stereo not shown) [Compound L0340]
- IVIS (mice; IM, DMG-PEG2000:DSPC:Chol:compound 1.40:11.15:38.95:48.50, N/P 30, Fluc-mRNA): 4.87E+07
- IVIS (mice; IV, body, DMG-PEG2000:DSPC:Chol:compound 1.40:11.15:38.95:48.50, N/P 30, Fluc-mRNA): 9.07E+07
- % of organ targeting (mice; IV, liver, DMG-PEG2000:DSPC:Chol:compound 1.40:11.15:38.95:48.50, N/P 30): 65.77%
- IVIS (mice; IV, liver, DMG-PEG2000:DSPC:Chol:compound 1.40:11.15:38.95:48.50, N/P 30, Fluc-mRNA): 2.85E+07
- % of organ targeting (mice; IV, lung, DMG-PEG2000:DSPC:Chol:compound 1.40:11.15:38.95:48.50, N/P 30): 1.45%
- IVIS (mice; IV, lung, DMG-PEG2000:DSPC:Chol:compound 1.40:11.15:38.95:48.50, N/P 30, Fluc-mRNA): 6.29E+05
- % of organ targeting (mice; IV, spleen, DMG-PEG2000:DSPC:Chol:compound 1.40:11.15:38.95:48.50, N/P 30): 32.78%
- IVIS (mice; IV, spleen, DMG-PEG2000:DSPC:Chol:compound 1.40:11.15:38.95:48.50, N/P 30, Fluc-mRNA): 1.42E+07

- Zeta potential (mV) [1, 4]: 7.85 mV
- PDI [2, 4]: 0.18
- Particle size (nm) [2, 4]: 212.5 nm
SMILES: CCCCCCCCCCCCN(C)C(=O)C(O)CN(C)CCN(C)CCN(C)CC(O)C(=O)N(C)CCCCCCCCCCCC (stereo not shown) [Compound L0341]
- IVIS (mice; [5]): 9.99E+04
- IVIS (mice; [6]): 4.10E+05

- Zeta potential (mV) [1, 4]: 5.68 mV
- PDI [2, 4]: 0.24
- Particle size (nm) [2, 4]: 73.79 nm
SMILES: CCCCCCCCCCCCN(C)C(=O)C(O)CN(CCCN(CC(O)C(=O)N(C)CCCCCCCCCCCC)CC(O)C(=O)N(C)CCCCCCCCCCCC)CCCN(CC(O)C(=O)N(C)CCCCCCCCCCCC)CC(O)C(=O)N(C)CCCCCCCCCCCC (stereo not shown) [Compound L0342]
- IVIS (mice; [5]): 2.02E+07
- IVIS (mice; [6]): 5.77E+06

- Zeta potential (mV) [1, 7]: 4.33 mV
- PDI [2, 7]: 0.24
- Particle size (nm) [2, 7]: 116.17 nm
SMILES: CCCCCCCCCCCCN(C)C(=O)C(O)CN(C)CCCN(C)CCCN(C)CC(O)C(=O)N(C)CCCCCCCCCCCC (stereo not shown) [Compound L0343]
- IVIS (mice; [8]): 9.39E+04
- IVIS (mice; IV, organ not given, DMG-PEG2000:DPPC:Chol:compound 1.40:11.15:38.95:48.50, N/P 30, Fluc-mRNA): 2.20E+05

- Zeta potential (mV) [1, 7]: 16.13 mV
- PDI [2, 7]: 0.26
- Particle size (nm) [2, 7]: 89.56 nm
SMILES: CCCCCCCCCCCCN(C)C(=O)C(O)CN(CCN(C)CCN(CC(O)C(=O)N(C)CCCCCCCCCCCC)CC(O)C(=O)N(C)CCCCCCCCCCCC)CC(O)C(=O)N(C)CCCCCCCCCCCC (stereo not shown) [Compound L0344]
- IVIS (mice; [8]): 8.28E+04
- IVIS (mice; [9]): 1.91E+06
- % of organ targeting (mice; [10]): 2.01%
- IVIS (mice; [11]): 1.15E+05
- % of organ targeting (mice; [12]): 93.07%
- IVIS (mice; [13]): 5.32E+06
- % of organ targeting (mice; [14]): 4.92%
- IVIS (mice; [15]): 2.81E+05

- Zeta potential (mV) [1, 7]: 10.25 mV
- PDI [2, 7]: 0.19
- Particle size (nm) [2, 7]: 81.64 nm
SMILES: CCCCCCCCCCCCN(C)C(=O)C(O)CN(CCCN(C)CCCN(CC(O)C(=O)N(C)CCCCCCCCCCCC)CC(O)C(=O)N(C)CCCCCCCCCCCC)CC(O)C(=O)N(C)CCCCCCCCCCCC (stereo not shown) [Compound L0345]
- IVIS (mice; [8]): 3.56E+05
- IVIS (mice; [9]): 2.28E+06
- % of organ targeting (mice; [10]): 1.89%
- IVIS (mice; [11]): 1.27E+05
- % of organ targeting (mice; [12]): 90.22%
- IVIS (mice; [13]): 6.05E+06
- % of organ targeting (mice; [14]): 7.89%
- IVIS (mice; [15]): 5.29E+05

- Zeta potential (mV) [1, 16]: 10.83 mV
- PDI [2, 16]: 0.10
- Particle size (nm) [2, 16]: 148.60 nm
SMILES: CCCCCCCCCCN(C)C(=O)C(O)CN(CCCN(C)CCCN(CC(O)C(=O)N(C)CCCCCCCCCC)CC(O)C(=O)N(C)CCCCCCCCCC)CC(O)C(=O)N(C)CCCCCCCCCC (stereo not shown) [Compound L0347]
- IVIS (mice; IM, mPEG-DMPE:DOPE:Chol:compound 1.40:11.15:38.95:48.50, N/P 24, Fluc-mRNA): 6.65E+04
- IVIS (mice; IV, body, mPEG-DMPE:DOPE:Chol:compound 1.40:11.15:38.95:48.50, N/P 24, Fluc-mRNA): 3.20E+06
- % of organ targeting (mice; IV, liver, mPEG-DMPE:DOPE:Chol:compound 1.40:11.15:38.95:48.50, N/P 24): 1.47%
- IVIS (mice; IV, liver, mPEG-DMPE:DOPE:Chol:compound 1.40:11.15:38.95:48.50, N/P 24, Fluc-mRNA): 1.56E+05
- % of organ targeting (mice; IV, lung, mPEG-DMPE:DOPE:Chol:compound 1.40:11.15:38.95:48.50, N/P 24): 86.45%
- IVIS (mice; IV, lung, mPEG-DMPE:DOPE:Chol:compound 1.40:11.15:38.95:48.50, N/P 24, Fluc-mRNA): 9.16E+06
- % of organ targeting (mice; IV, spleen, mPEG-DMPE:DOPE:Chol:compound 1.40:11.15:38.95:48.50, N/P 24): 12.08%
- IVIS (mice; IV, spleen, mPEG-DMPE:DOPE:Chol:compound 1.40:11.15:38.95:48.50, N/P 24, Fluc-mRNA): 1.28E+06

- Zeta potential (mV) [1, 17]: 5.54 mV
- PDI [2, 17]: 0.14
- Particle size (nm) [2, 17]: 118.20 nm
SMILES: CCCCCCCCCCN(C)C(=O)C(O)CN(C)CCN(C)CCN(C)CC(O)C(=O)N(C)CCCCCCCCCC (stereo not shown) [Compound L0348]
- IVIS (mice; Fluc-mRNA LNP, route IM, organ not given, formulation, molar ratio and N/P as in the table): 3.49E+05
- IVIS (mice; IV, organ not given, DSPE-PEG5000:DPPC:Chol:compound 1.00:11.15:39.35:48.50, N/P 15, Fluc-mRNA): 4.84E+05

- Zeta potential (mV) [1, 18]: 11.13 mV
- Zeta potential (mV) [1, 19]: 10.97 mV
- PDI [2, 18]: 0.13
- Particle size (nm) [2, 18]: 112.27 nm
- PDI [2, 19]: 0.16
- Particle size (nm) [2, 19]: 102.50 nm
SMILES: CCCCCCCCCCCCNC(=O)CCN(CCCN(C)CCCN(CCC(=O)NCCCCCCCCCCCC)CCC(=O)NCCCCCCCCCCCC)CCC(=O)NCCCCCCCCCCCC [L0263-Control, reference compound]
- % of organ targeting (mice; [20]): 0.59%
- IVIS (mice; [20]): 5.33E+06
- % of organ targeting (mice; [21]): 97.16%
- IVIS (mice; [21]): 8.80E+08
- % of organ targeting (mice; [22]): 2.25%
- IVIS (mice; [22]): 2.04E+07
- IVIS (mice; mRNA LNP, 1.40:11.15:38.95:48.50, N/P 30, IM, organ not given): 7.79E+05
- % of organ targeting (mice; [23]): 1.59%
- IVIS (mice; [23]): 3.11E+06
- % of organ targeting (mice; [24]): 80.11%
- IVIS (mice; [24]): 1.57E+08
- % of organ targeting (mice; [25]): 18.30%
- IVIS (mice; [25]): 3.59E+07
- IVIS (mice; mRNA LNP, DMG-PEG2000:DSPC:Chol:lipid 1.00:10.00:33.00:56.00, N/P 42, IV, body): 1.28E+08
- IVIS (mice; mRNA LNP, DMG-PEG2000:DSPC:Chol:lipid 1.40:11.15:38.95:48.50, N/P 30, IV, body): 5.69E+07
